Measured values as given in patent publication US20220160714A1, “METHODS FOR TREATING COLORECTAL CANCER” (ICAHN SCHOOL OF MEDICINE AT MOUNT SINAI, priority 2019, published 2022).
Where a name gives a salt, the structure may show the parent alone.

System: patient's personalized Drosophila model 006.1
Assay: Trametinib combination drug screen (Table 4B, experimental pupae numbers)
Type: in vivo
How it was run: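 Experimental and control embryos (1:2 ratio) from the UAS-006.1/ago and apc RNAi byn-gal4 tub-gal80^ts cross, laid at 22 °C, dispensed onto drug-containing food, then shifted to 25 °C to induce transgene expression. Surviving experimental pupae counted per tube after 2 weeks; DMSO and Trametinib alone as controls.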

[1] = drug screened in combination with trametinib
[2] = drug screened in combination with trametinib, mean of 8 replicates

Structure (SMILES) | EP (raw experimental pupae numbers), replicate 1 [1] | EP (raw experimental pupae numbers), replicate 2 [1] | EP (raw experimental pupae numbers), replicate 3 [1] | EP (raw experimental pupae numbers), replicate 4 [1] | EP (raw experimental pupae numbers), replicate 5 [1] | EP (raw experimental pupae numbers), replicate 6 [1] | EP (raw experimental pupae numbers), replicate 7 [1] | EP (raw experimental pupae numbers), replicate 8 [1] | EP mean [2] | EP mean (in vivo)
Fc1ccc([C@@H]2CCNC[C@H]2COc2ccc3c(c2)OCO3)cc1 [paroxetine HCl] | 0 | 0 | 0 | 0 | 1 | 2 | 0 | 1 | 0.5 | 
CC(C)(C)N.CCC[C@H](N[C@@H](C)C(=O)N1[C@H](C(=O)O)C[C@@H]2CCCC[C@@H]21)C(=O)OCC [perindropil erbumine] | 0 | 0 | 3 | 3 | 5 | 1 | 2 | 2 |  | 2
CC(C(=O)O)c1ccc2c(c1)Cc1cccnc1O2 (centres unmarked) [pranaprofen] | 0 | 1 | 1 | 1 | 1 | 3 | 1 | 3 | 1.375 | 
Cc1cc(/C=C/c2ccc3cc(N(C)C)ccc3[n+]2C)c(C)n1-c1ccccc1 [pyrvinium] | 4 | 1 | 6 | 4 | 2 | 1 | 3 | 0 |  | 
CC(C)N(CCCCOCC(=O)NS(C)(=O)=O)c1cnc(-c2ccccc2)c(-c2ccccc2)n1 [selexipag] | 3 | 0 | 1 | 0 | 2 | 4 | 4 | 2 | 2 | 
CN[C@@H]1[C@@H](O)[C@@H](O[C@@H]2[C@@H](O)[C@H](O[C@H]3OC(CN)=CC[C@H]3N)[C@@H](N)C[C@H]2N)OC[C@]1(C)O [sisomicin] | 1 | 1 | 1 | 1 | 2 | 1 | 0 | 0 | 0.875 | 
CC1=C(CC(=O)O)c2cc(F)ccc2/C1=C\c1ccc([S+](C)[O-])cc1 (centres unmarked) [sulindac] | 0 | 0 | 1 | 2 | 1 | 1 | 0 | 2 |  | 0.875
CNS(=O)(=O)Cc1ccc2[nH]cc(CCN(C)C)c2c1 [sumatriptan succinate] | 0 | 0 | 1 | 1 | 1 | 1 | 1 | 1 | 0.75 | 
Cc1ccc(-n2nccn2)c(C(=O)N2CCN(c3nc4cc(Cl)ccc4o3)CC[C@H]2C)c1 [suvorexant] | 0 | 0 | 3 | 1 | 5 | 1 | 1 | 3 |  | 1.75
O=C1CCC(N2C(=O)c3ccccc3C2=O)C(=O)N1 (centres unmarked) [thalidomide] | 1 | 1 | 0 | 1 | 0 | 0 | 0 | 0 | 0.375 | 
CCCCCCCCCCCCCCCC[N+](C)(C)CCN(Cc1ccc(OC)cc1)c1ncccn1 [thonzonium bromide] | 0 | 0 | 1 | 0 | 2 | 1 | 1 | 3 | 1 | 
C[C@@H]1CCN(C(=O)CC#N)C[C@@H]1N(C)c1ncnc2[nH]ccc12 [tofacitinib] | 1 | 0 | 1 | 0 | 2 | 1 | 0 | 0 | 0.625 | 
CC1(C)O[C@@H]2[C@@H](CO[C@@]3(COS(N)(=O)=O)OC(C)(C)O[C@@H]23)O1 [topiramate] | 0 | 0 | 0 | 0 | 3 | 3 | 1 | 0 | 0.875 | 
CCOC(=O)N[C@@H]1CC[C@@H]2[C@@H](C1)C[C@H]1C(=O)O[C@H](C)[C@H]1[C@H]2/C=C/c1ccc(-c2cccc(F)c2)cn1 [vorapaxar] | 0 | 0 | 1 | 0 | 3 | 0 | 0 | 0 | 0.5 | 
NS(=O)(=O)Cc1noc2ccccc12 [zonisamide] | 0 | 2 | 0 | 1 | 3 | 1 | 1 | 0 | 1 | 
